The text below walks through data of BindingDB's records for doi:10.1021/acs.jmedchem.9b00882 (Shenyang Pharmaceutical University, 2019).

Usually EC50 stands for the concentration at which the effect is half-maximal.

Starred links: 1 amine or outer side, 2 acyl side, 3 side chain; linkers in the order of their positions; H or OH if unused. Positions of bridges follow the written chain, without caps; N, C: chain ends. Non-standard residues stand in square brackets, D forms with d. Residues, ends and D or L forms follow the SMILES beside them. ξ: configuration not given here. mXylylene = c1cc(C[*:1])cc(C[*:2])c1; ξhCys = NC(CCS)C(=O)O

Experiment [1] can be described thus: Inhibition of HIV1 gp41-induced cell-cell fusion between viral envelope expressing human HL2/3 cells to CD4/CCR5 receptor expressing TZM-bl cells after 6 hrs by luciferase assay.
The target of experiment [2] is Envelope glycoprotein gp160 (Human immunodeficiency virus 1, UniProt Q6QLK5). The experiment can be described thus: Inhibition of HIV1 gp41-induced cell-cell fusion between viral envelope expressing human HL2/3 cells to CD4/CCR5 receptor expressing TZM-bl cells after 6 hrs by luciferase assay.
Envelope glycoprotein gp160, sequence (Q6QLK5 whole entry, the tested form may be a part): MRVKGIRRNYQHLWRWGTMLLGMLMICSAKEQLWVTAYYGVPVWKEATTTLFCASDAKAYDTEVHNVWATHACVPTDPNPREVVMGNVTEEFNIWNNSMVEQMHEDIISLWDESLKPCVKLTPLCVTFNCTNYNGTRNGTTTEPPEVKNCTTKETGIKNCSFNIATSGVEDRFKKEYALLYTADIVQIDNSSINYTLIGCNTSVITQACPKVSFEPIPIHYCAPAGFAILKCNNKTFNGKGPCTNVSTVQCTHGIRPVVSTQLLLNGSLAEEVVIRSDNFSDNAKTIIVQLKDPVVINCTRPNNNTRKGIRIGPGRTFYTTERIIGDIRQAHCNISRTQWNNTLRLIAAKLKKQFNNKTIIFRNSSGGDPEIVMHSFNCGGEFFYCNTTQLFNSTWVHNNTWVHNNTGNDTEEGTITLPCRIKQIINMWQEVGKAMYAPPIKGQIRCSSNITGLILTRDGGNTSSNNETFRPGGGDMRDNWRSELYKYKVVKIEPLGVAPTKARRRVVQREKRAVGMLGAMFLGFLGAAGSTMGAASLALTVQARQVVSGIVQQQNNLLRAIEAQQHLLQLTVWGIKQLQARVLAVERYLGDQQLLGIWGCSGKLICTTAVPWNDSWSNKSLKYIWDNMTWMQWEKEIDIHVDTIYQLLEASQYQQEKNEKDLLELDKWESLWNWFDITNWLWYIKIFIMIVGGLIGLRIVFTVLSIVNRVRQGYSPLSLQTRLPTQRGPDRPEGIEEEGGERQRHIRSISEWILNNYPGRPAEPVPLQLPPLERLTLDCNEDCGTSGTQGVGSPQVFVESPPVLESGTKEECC
Experiment [3] can be described thus: Inhibition of HIV1 gp41-induced cell-cell fusion between viral envelope expressing human HL2/3 cells to CD4/CCR5 receptor expressing TZM-bl cells at 4:1 compound to HP23 ratio incubated for 6 hrs by luciferase reporter gene assay. On the technique in general: A reporter such as luciferase makes a cellular process visible.
A short description of experiment [4]: Inhibition of HIV1 gp41-induced cell-cell fusion between viral envelope expressing human HL2/3 cells to CD4/CCR5 receptor expressing TZM-bl cells at 2:1 ratio of hCS6ERE to compound incubated for 6 hrs by luciferase reporter gene assay.
A short description of experiment [5]: Inhibition of HIV1 gp41-induced cell-cell fusion between viral envelope expressing human HL2/3 cells to CD4/CCR5 receptor expressing TZM-bl cells at 4:1 ratio of hCS6ERE to compound incubated for 6 hrs by luciferase reporter gene assay.
Experiment [6] can be described thus: Inhibition of HIV1 gp41-induced cell-cell fusion between viral envelope expressing human HL2/3 cells to CD4/CCR5 receptor expressing TZM-bl cells at 1:1 ratio of hCS6ERE to compound incubated for 6 hrs by luciferase reporter gene assay.

The compound `CC[C@H](C)[C@H](NC(C)=O)C(=O)N[C@@H](CCC(=O)O)C(=O)N[C@H]1CSCc2cccc(c2)CSC[C@@H](C(=O)N[C@@H](C)C(=O)N[C@@H](CCC(N)=O)C(=O)N[C@@H](CCC(=O)O)C(=O)N[C@@H](CCC(N)=O)C(=O)N[C@@H](CCC(N)=O)C(=O)N[C@@H](CCC(=O)O)C(=O)N[C@@H](CCCCN)C(=O)N[C@@H](CC(N)=O)C(=O)N[C@@H](CCC(=O)O)C(=O)N[C@@H](C)C(=O)N[C@@H](C)C(=O)N[C@@H](CC(C)C)C(=O)N[C@@H](CCCNC(=N)N)C(=O)N[C@@H](CCC(=O)O)C(=O)N[C@@H](CC(C)C)C(N)=O)NC(=O)[C@H](CCCNC(=N)N)NC(=O)[C@H]([C@@H](C)CC)NC(=O)[C@H](CC(C)C)NC1=O` (Ac-IECLIRCAQEQQEKNEAALREL-NH2; linker 3-7 via mXylylene) returned an EC50 in experiment [1] of 0.136 µM.
Compound `CC[C@H](C)[C@H](NC(C)=O)C(=O)N[C@@H](CCC(=O)O)C(=O)N[C@@H](C)C(=O)N[C@@H](CC(C)C)C(=O)N[C@H](C(=O)N[C@@H](CCCNC(=N)N)C(=O)N[C@@H](C)C(=O)N[C@@H](C)C(=O)N[C@@H](CCC(N)=O)C(=O)N[C@@H](CCC(=O)O)C(=O)N[C@@H](CCC(N)=O)C(=O)N[C@@H](CCC(N)=O)C(=O)N[C@H]1CSCc2cccc(c2)CSC[C@@H](C(=O)N[C@@H](C)C(=O)N[C@@H](CC(C)C)C(=O)N[C@@H](CCCNC(=N)N)C(=O)N[C@@H](CCC(=O)O)C(=O)N[C@@H](CC(C)C)C(N)=O)NC(=O)[C@H](CCC(=O)O)NC(=O)[C@H](CC(N)=O)NC(=O)[C@H](CCCCN)NC1=O)[C@@H](C)CC` (Ac-IEALIRAAQEQQCKNECALREL-NH2; linker 13-17 via mXylylene) yielded an EC50 in experiment [1] of 0.132 µM.
Regarding `CC[C@H](C)[C@H](NC(C)=O)C(=O)N[C@@H](CCC(=O)O)C(=O)N[C@@H](C)C(=O)N[C@@H](CC(C)C)C(=O)N[C@H](C(=O)N[C@H]1CSCc2cccc(c2)CSC[C@@H](C(=O)N[C@@H](CCC(N)=O)C(=O)N[C@@H](CCC(N)=O)C(=O)N[C@@H](CCC(=O)O)C(=O)N[C@@H](CCCCN)C(=O)N[C@@H](CC(N)=O)C(=O)N[C@@H](CCC(=O)O)C(=O)N[C@@H](C)C(=O)N[C@@H](C)C(=O)N[C@@H](CC(C)C)C(=O)N[C@@H](CCCNC(=N)N)C(=O)N[C@@H](CCC(=O)O)C(=O)N[C@@H](CC(C)C)C(N)=O)NC(=O)[C@H](CCC(N)=O)NC(=O)[C@H](C)NC(=O)[C@H](C)NC1=O)[C@@H](C)CC` (Ac-IEALICAAQCQQEKNEAALREL-NH2; linker 6-10 via mXylylene), in experiment [1], it took 0.096 µM to reach a half-maximal effect (EC50).
With `CC[C@H](C)[C@H](NC(C)=O)C(=O)N[C@@H](CCC(=O)O)C(=O)N[C@@H](C)C(=O)N[C@@H](CC(C)C)C(=O)N[C@H](C(=O)N[C@@H](CCCNC(=N)N)C(=O)N[C@@H](C)C(=O)N[C@@H](C)C(=O)N[C@@H](CCC(N)=O)C(=O)N[C@@H](CCC(=O)O)C(=O)N[C@@H](CCC(N)=O)C(=O)N[C@@H](CCC(N)=O)C(=O)N[C@@H](CCC(=O)O)C(=O)N[C@@H](CCCCN)C(=O)N[C@@H](CC(N)=O)C(=O)N[C@H]1CSCc2cccc(c2)CSC[C@@H](C(=O)N[C@@H](CCC(=O)O)C(=O)N[C@@H](CC(C)C)C(N)=O)NC(=O)[C@H](CC(C)C)NC(=O)[C@H](C)NC(=O)[C@H](C)NC1=O)[C@@H](C)CC` (Ac-IEALIRAAQEQQEKNCAALCEL-NH2; linker 16-20 via mXylylene), the EC50 in experiment [1] came out at 0.166 µM.
In experiment [1], `CC[C@H](C)[C@H](NC(C)=O)C(=O)N[C@@H](CCC(=O)O)C(=O)N[C@@H](C)C(=O)N[C@@H](CC(C)C)C(=O)N[C@H](C(=O)NC1CCSCc2cccc(c2)CSCCC(C(=O)N[C@@H](CCC(N)=O)C(=O)N[C@@H](CCC(N)=O)C(=O)N[C@@H](CCCNC(=N)N)C(=O)N[C@@H](CCCCN)C(=O)N[C@@H](CC(N)=O)C(=O)N[C@@H](CCC(=O)O)C(=O)N[C@@H](CCC(=O)O)C(=O)N[C@@H](C)C(=O)N[C@@H](CC(C)C)C(=O)N[C@@H](CCCNC(=N)N)C(=O)N[C@@H](CCC(=O)O)C(=O)N[C@@H](CC(C)C)C(N)=O)NC(=O)[C@H](CCC(N)=O)NC(=O)[C@H](C)NC(=O)[C@H](C)NC1=O)[C@@H](C)CC` (some centres not stated) (Ac-IEALI[ξhCys]AAQ[ξhCys]QQRKNEEALREL-NH2; linker 6-10 via mXylylene) showed an EC50 of 0.022 µM.
Turning to `CC[C@H](C)[C@H](NC(C)=O)C(=O)N[C@@H](CCC(=O)O)C(=O)N[C@@H](C)C(=O)N[C@@H](CC(C)C)C(=O)N[C@H](C(=O)NC1CCSCc2cccc(c2)CSCCC(C(=O)N[C@@H](CCC(N)=O)C(=O)N[C@@H](CCC(N)=O)C(=O)N[C@@H](CCC(=O)O)C(=O)N[C@@H](CCCCN)C(=O)N[C@@H](CC(N)=O)C(=O)N[C@@H](CCC(=O)O)C(=O)N[C@@H](C)C(=O)N[C@@H](C)C(=O)N[C@@H](CC(C)C)C(=O)N[C@@H](CCCNC(=N)N)C(=O)N[C@@H](CCC(=O)O)C(=O)N[C@@H](CC(C)C)C(N)=O)NC(=O)[C@H](CCC(N)=O)NC(=O)[C@H](C)NC(=O)[C@H](C)NC1=O)[C@@H](C)CC` (some centres not stated) (Ac-IEALI[ξhCys]AAQ[ξhCys]QQEKNEAALREL-NH2; linker 6-10 via mXylylene), it took 0.034 µM to reach a half-maximal effect in experiment [1] (EC50).
Regarding Ac-IEALIRAAQEQQEKNEAALREL-NH2, the 50% effective concentration (EC50) in experiment [1] was found to be 0.127 µM.
In experiment [1], `CC[C@H](C)[C@H](NC(C)=O)C(=O)N[C@H]1CSCc2cccc(c2)CSC[C@@H](C(=O)N[C@@H](C)C(=O)N[C@@H](C)C(=O)N[C@@H](CCC(N)=O)C(=O)N[C@@H](CCC(=O)O)C(=O)N[C@@H](CCC(N)=O)C(=O)N[C@@H](CCC(N)=O)C(=O)N[C@@H](CCC(=O)O)C(=O)N[C@@H](CCCCN)C(=O)N[C@@H](CC(N)=O)C(=O)N[C@@H](CCC(=O)O)C(=O)N[C@@H](C)C(=O)N[C@@H](C)C(=O)N[C@@H](CC(C)C)C(=O)N[C@@H](CCCNC(=N)N)C(=O)N[C@@H](CCC(=O)O)C(=O)N[C@@H](CC(C)C)C(N)=O)NC(=O)[C@H]([C@@H](C)CC)NC(=O)[C@H](CC(C)C)NC(=O)[C@H](C)NC1=O` (Ac-ICALICAAQEQQEKNEAALREL-NH2; linker 2-6 via mXylylene) showed an EC50 of 0.147 µM.
`CC[C@H](C)[C@H](NC(C)=O)C(=O)N[C@@H](CCC(=O)O)C(=O)N[C@@H](C)C(=O)N[C@@H](CC(C)C)C(=O)N[C@H](C(=O)N[C@@H](CCCNC(=N)N)C(=O)N[C@@H](C)C(=O)N[C@@H](C)C(=O)N[C@@H](CCC(N)=O)C(=O)N[C@@H](CCC(=O)O)C(=O)N[C@@H](CCC(N)=O)C(=O)N[C@@H](CCC(N)=O)C(=O)N[C@@H](CCC(=O)O)C(=O)N[C@@H](CCCCN)C(=O)N[C@@H](CC(N)=O)C(=O)N[C@@H](CCC(=O)O)C(=O)N[C@H]1CSCc2cccc(c2)CSC[C@@H](C(=O)N[C@@H](CC(C)C)C(N)=O)NC(=O)[C@H](CCCNC(=N)N)NC(=O)[C@H](CC(C)C)NC(=O)[C@H](C)NC1=O)[C@@H](C)CC` (Ac-IEALIRAAQEQQEKNECALRCL-NH2; linker 17-21 via mXylylene) gave an EC50 in experiment [1] of 0.123 µM.
With `CC[C@H](C)[C@H](NC(C)=O)C(=O)N[C@@H](CCC(=O)O)C(=O)N[C@@H](CCC(=O)O)C(=O)N[C@@H](CC(C)C)C(=O)N[C@H](C(=O)NC1CCSCc2cccc(c2)CSCCC(C(=O)N[C@@H](CCC(N)=O)C(=O)N[C@@H](CCC(N)=O)C(=O)N[C@@H](CCCNC(=N)N)C(=O)N[C@@H](CCCCN)C(=O)N[C@@H](CC(N)=O)C(=O)N[C@@H](CCC(=O)O)C(=O)N[C@@H](CCC(=O)O)C(=O)N[C@@H](C)C(=O)N[C@@H](CC(C)C)C(=O)N[C@@H](CCCNC(=N)N)C(=O)N[C@@H](CCC(=O)O)C(=O)N[C@@H](CC(C)C)C(N)=O)NC(=O)[C@H](CCC(N)=O)NC(=O)[C@H](C)NC(=O)[C@H](C)NC1=O)[C@@H](C)CC` (some centres not stated) (Ac-IEELI[ξhCys]AAQ[ξhCys]QQRKNEEALREL-NH2; linker 6-10 via mXylylene), the EC50 in experiment [2] is 0.0072 µM; in experiment [3], 0.0071 µM.
In the case of H-EMTWEEWEKKIEEYTKKIEEILK-OH, the EC50 in experiment [4] amounted to 0.0053 µM; in experiment [5], 0.0017 µM; in experiment [6] it was 0.011 µM; in experiment [1], 0.011 µM.
On to `CC[C@H](C)[C@H](NC(C)=O)C(=O)N[C@@H](CCC(=O)O)C(=O)N[C@@H](C)C(=O)N[C@@H](CC(C)C)C(=O)N[C@H](C(=O)N[C@@H](CCCNC(=N)N)C(=O)N[C@@H](C)C(=O)N[C@@H](C)C(=O)N[C@H]1CSCc2cccc(c2)CSC[C@@H](C(=O)N[C@@H](CCCCN)C(=O)N[C@@H](CC(N)=O)C(=O)N[C@@H](CCC(=O)O)C(=O)N[C@@H](C)C(=O)N[C@@H](C)C(=O)N[C@@H](CC(C)C)C(=O)N[C@@H](CCCNC(=N)N)C(=O)N[C@@H](CCC(=O)O)C(=O)N[C@@H](CC(C)C)C(N)=O)NC(=O)[C@H](CCC(N)=O)NC(=O)[C@H](CCC(N)=O)NC(=O)[C@H](CCC(=O)O)NC1=O)[C@@H](C)CC` (Ac-IEALIRAACEQQCKNEAALREL-NH2; linker 9-13 via mXylylene), for which, in experiment [1], the EC50 turned out to be 0.214 µM.
Compound `CC[C@H](C)[C@H](NC(C)=O)C(=O)N[C@@H](CCC(=O)O)C(=O)N[C@@H](C)C(=O)N[C@@H](CC(C)C)C(=O)N[C@H](C(=O)N[C@@H](CCCNC(=N)N)C(=O)N[C@@H](C)C(=O)N[C@@H](C)C(=O)N[C@@H](CCC(N)=O)C(=O)N[C@H]1CSCc2cccc(c2)CSC[C@@H](C(=O)N[C@@H](CC(N)=O)C(=O)N[C@@H](CCC(=O)O)C(=O)N[C@@H](C)C(=O)N[C@@H](C)C(=O)N[C@@H](CC(C)C)C(=O)N[C@@H](CCCNC(=N)N)C(=O)N[C@@H](CCC(=O)O)C(=O)N[C@@H](CC(C)C)C(N)=O)NC(=O)[C@H](CCC(=O)O)NC(=O)[C@H](CCC(N)=O)NC(=O)[C@H](CCC(N)=O)NC1=O)[C@@H](C)CC` (Ac-IEALIRAAQCQQECNEAALREL-NH2; linker 10-14 via mXylylene) came in with an EC50 in experiment [1] of 0.171 µM.
